According to US7452887B2, “Quinoline- and isoquinoline-based compounds exhibiting ATP-utilizing enzyme inhibitory activity, and compositions, and uses thereof” (Amphora Discovery Corporation, priority 2004, dated 2008):

Tests used:
Experiment in all cases: HTS ATP-utilizing enzyme assay, off-chip mobility-shift (Caliper HTS 250)
Assay type in all cases: biochemical
Conditions in all cases: test compound 10 μM, kinase listed = active (greater than six-sigma from the mean activity of inactive compounds)
MAPKAPK2 = MAPKAPK2 (Homo sapiens, UniProt P49137)
Chain of MAPKAPK2 (P49137 whole entry): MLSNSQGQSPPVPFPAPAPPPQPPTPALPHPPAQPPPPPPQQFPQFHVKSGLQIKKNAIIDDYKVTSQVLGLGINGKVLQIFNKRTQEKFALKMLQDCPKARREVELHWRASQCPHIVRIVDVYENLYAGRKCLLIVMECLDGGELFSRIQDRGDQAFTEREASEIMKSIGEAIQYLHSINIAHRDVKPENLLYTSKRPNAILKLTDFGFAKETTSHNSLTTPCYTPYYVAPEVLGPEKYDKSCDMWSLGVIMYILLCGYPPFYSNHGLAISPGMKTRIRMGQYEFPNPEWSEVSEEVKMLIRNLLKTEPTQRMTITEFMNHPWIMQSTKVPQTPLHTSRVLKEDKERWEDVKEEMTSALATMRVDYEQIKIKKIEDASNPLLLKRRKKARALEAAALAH
In short: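 Phosphorylation of a peptide substrate was quantified by Caliper mobility-shift separation of substrate and product after 2.5 h at 20-22 °C, with compounds tested at 10 μM. Inhibition was normalized to EDTA-quenched (100%) and DMSO (0%) controls; six-sigma thresholds flagged actives.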

PDGFR-α = PDGFR-α (Homo sapiens, UniProt P16234)
Chain of PDGFR-α (P16234 24-1089): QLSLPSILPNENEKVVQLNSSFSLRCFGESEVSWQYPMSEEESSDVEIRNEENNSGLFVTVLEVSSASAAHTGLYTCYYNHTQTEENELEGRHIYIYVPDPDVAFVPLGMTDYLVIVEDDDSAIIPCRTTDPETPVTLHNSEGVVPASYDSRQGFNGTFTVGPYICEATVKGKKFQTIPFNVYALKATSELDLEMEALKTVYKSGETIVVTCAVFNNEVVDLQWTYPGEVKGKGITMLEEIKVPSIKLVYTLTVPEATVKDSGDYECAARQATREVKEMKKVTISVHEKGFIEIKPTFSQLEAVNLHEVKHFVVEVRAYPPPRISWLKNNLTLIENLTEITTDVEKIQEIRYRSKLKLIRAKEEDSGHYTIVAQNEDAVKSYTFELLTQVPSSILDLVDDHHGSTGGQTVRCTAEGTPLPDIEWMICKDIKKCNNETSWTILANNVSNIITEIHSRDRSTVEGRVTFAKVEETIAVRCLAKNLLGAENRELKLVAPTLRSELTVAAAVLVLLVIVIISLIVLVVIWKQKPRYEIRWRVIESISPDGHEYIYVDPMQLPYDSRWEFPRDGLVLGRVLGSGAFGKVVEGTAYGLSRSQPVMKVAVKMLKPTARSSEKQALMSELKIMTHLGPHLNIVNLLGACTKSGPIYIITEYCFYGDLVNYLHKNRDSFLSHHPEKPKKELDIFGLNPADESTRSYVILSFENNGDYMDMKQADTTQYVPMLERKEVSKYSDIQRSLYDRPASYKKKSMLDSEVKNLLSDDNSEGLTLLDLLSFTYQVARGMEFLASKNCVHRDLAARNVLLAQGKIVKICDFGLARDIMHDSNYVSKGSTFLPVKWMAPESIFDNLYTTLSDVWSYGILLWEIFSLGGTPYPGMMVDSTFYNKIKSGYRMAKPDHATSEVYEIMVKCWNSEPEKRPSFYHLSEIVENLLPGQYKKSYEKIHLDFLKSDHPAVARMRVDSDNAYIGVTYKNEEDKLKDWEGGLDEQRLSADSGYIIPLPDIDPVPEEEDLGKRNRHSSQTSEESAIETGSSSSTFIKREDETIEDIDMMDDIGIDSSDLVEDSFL
In short: (§1)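 Compounds were tested once at 10 μM against kinase with peptide substrate. After 2.5 hrs at 20° C. to 22° C., reactions were terminated with EDTA, and conversion was read as substrate/product ratio by mobility shift.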

FLT-3 = target: T1, FLT-3 (Homo sapiens, UniProt P36888)
T1 sequence (P36888 27-993): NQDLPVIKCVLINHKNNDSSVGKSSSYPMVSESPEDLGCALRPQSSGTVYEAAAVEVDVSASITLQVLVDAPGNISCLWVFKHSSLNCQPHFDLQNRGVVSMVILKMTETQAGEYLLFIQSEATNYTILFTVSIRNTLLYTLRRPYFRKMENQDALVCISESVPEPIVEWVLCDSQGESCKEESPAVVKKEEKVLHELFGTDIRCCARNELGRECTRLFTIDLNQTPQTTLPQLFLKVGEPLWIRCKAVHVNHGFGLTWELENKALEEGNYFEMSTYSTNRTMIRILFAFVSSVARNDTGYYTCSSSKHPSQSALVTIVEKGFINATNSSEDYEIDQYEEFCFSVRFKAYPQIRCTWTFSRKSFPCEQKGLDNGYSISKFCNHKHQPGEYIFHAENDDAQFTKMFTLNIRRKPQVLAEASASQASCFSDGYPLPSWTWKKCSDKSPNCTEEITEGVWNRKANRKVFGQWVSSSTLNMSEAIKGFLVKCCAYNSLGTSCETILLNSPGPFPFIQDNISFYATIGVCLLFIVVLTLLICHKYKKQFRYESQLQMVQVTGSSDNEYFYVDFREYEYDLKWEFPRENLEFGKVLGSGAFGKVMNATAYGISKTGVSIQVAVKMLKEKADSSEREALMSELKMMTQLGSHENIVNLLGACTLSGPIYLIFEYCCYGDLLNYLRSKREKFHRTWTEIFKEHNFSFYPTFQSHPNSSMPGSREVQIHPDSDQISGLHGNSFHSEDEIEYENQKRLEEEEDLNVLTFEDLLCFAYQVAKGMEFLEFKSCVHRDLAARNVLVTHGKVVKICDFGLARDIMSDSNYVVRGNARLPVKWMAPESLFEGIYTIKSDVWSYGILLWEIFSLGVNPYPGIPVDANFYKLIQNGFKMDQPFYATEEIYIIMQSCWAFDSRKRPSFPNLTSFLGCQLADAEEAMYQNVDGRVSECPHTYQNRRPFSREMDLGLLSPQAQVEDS
In short: as §1

ABL1 = ABL1 (Homo sapiens, UniProt P00519)
Chain of ABL1 (P00519 whole entry): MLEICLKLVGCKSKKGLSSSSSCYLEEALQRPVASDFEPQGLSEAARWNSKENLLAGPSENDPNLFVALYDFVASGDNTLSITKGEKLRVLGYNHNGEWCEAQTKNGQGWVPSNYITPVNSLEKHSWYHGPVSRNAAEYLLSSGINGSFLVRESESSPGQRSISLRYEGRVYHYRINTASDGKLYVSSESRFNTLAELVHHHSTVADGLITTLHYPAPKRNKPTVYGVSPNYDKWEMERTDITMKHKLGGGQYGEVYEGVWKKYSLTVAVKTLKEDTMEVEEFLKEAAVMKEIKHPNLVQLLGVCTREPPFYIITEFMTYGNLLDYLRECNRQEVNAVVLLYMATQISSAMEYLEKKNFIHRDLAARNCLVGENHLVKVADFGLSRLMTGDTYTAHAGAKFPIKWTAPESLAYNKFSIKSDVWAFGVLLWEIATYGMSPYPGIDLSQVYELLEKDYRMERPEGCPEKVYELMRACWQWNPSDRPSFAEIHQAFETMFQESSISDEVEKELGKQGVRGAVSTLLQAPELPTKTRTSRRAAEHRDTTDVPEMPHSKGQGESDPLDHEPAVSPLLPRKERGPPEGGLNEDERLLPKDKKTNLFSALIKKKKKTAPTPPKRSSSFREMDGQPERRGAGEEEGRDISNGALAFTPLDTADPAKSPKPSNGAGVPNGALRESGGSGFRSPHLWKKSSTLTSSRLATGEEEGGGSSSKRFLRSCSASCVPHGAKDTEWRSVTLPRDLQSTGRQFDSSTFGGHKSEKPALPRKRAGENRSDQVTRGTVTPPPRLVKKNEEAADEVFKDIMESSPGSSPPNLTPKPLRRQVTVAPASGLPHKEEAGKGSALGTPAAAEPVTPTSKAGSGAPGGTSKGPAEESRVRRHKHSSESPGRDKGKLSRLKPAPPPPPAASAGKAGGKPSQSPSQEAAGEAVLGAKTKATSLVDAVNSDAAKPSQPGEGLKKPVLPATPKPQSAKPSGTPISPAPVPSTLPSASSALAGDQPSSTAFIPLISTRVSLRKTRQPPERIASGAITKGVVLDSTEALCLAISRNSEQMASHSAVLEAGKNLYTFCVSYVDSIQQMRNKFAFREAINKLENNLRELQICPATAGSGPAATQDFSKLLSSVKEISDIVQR
In short: as §1

AKT3 = AKT3 (Homo sapiens, UniProt Q9Y243)
In short: as §1

LCK = LCK (Homo sapiens, UniProt P06239)
Chain of LCK (P06239 whole entry): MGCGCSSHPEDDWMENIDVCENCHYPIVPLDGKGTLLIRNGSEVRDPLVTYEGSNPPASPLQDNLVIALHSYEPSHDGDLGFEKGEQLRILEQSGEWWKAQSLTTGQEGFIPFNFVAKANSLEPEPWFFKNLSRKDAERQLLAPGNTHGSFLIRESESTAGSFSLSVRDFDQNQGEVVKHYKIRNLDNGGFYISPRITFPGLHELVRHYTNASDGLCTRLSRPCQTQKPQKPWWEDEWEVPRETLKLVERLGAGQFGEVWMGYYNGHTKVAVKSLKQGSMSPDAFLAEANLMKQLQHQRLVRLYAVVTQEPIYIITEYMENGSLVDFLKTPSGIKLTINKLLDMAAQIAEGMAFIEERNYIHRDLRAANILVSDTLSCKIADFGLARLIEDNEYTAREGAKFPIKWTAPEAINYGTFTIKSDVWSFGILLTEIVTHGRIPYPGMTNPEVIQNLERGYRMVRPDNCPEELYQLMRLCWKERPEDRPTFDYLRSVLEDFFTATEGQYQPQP
In short: as §1

PRAK = target: T2, PRAK (Homo sapiens, UniProt Q8IW41)
T2 sequence (Q8IW41 1-473): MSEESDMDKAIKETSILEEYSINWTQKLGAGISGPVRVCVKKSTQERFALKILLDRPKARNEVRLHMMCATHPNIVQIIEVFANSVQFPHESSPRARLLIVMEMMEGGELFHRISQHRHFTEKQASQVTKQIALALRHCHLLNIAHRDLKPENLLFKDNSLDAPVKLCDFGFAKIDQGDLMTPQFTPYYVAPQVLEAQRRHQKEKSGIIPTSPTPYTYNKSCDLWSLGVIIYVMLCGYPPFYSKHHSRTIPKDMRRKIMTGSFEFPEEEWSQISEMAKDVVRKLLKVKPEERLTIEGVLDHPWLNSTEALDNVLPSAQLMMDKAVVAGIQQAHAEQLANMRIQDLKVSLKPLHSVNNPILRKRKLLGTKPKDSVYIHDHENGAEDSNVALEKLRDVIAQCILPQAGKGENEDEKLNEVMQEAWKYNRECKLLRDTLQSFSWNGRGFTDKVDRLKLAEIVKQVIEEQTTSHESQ
In short: as §1

SRC = SRC (Homo sapiens, UniProt P12931)
Chain of SRC (P12931 whole entry): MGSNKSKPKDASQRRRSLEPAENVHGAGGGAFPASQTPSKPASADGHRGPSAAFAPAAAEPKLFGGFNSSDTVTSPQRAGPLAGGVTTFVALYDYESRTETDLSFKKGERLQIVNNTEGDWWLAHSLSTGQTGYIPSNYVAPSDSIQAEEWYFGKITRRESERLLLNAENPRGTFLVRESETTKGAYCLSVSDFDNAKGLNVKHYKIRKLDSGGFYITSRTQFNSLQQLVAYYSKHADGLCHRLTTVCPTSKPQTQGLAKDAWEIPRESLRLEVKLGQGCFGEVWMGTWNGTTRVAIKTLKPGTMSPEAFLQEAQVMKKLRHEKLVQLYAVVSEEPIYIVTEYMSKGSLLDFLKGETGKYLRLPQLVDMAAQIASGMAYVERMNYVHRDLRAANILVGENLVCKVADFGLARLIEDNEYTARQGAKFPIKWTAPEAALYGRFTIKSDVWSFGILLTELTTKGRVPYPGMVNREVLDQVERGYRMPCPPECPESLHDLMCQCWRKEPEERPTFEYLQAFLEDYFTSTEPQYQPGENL
In short: as §1

C-TAK1 = C-TAK1 (Homo sapiens, UniProt P27448)
Chain of C-TAK1 (P27448 whole entry): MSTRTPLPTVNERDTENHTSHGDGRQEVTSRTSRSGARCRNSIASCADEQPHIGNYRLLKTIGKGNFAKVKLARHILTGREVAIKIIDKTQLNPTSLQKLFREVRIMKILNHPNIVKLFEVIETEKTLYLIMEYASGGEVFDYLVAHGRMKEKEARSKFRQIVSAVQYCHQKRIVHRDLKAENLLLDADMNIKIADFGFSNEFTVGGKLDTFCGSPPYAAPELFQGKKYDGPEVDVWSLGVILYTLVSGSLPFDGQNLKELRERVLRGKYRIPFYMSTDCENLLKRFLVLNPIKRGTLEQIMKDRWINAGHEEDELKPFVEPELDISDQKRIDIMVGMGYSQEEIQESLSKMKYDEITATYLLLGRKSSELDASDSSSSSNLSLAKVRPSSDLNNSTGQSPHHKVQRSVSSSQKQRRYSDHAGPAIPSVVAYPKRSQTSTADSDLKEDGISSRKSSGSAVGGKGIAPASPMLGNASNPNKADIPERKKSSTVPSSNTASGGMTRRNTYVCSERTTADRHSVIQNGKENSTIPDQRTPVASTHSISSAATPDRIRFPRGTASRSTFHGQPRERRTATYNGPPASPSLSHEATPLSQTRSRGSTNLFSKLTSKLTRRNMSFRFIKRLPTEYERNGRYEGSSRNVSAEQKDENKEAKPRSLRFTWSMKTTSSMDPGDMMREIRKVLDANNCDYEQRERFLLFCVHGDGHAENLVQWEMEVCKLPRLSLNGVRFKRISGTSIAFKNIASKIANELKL
In short: as §1

LYNA = LYNA (Homo sapiens, UniProt P07948)
Chain of LYNA (P07948 whole entry): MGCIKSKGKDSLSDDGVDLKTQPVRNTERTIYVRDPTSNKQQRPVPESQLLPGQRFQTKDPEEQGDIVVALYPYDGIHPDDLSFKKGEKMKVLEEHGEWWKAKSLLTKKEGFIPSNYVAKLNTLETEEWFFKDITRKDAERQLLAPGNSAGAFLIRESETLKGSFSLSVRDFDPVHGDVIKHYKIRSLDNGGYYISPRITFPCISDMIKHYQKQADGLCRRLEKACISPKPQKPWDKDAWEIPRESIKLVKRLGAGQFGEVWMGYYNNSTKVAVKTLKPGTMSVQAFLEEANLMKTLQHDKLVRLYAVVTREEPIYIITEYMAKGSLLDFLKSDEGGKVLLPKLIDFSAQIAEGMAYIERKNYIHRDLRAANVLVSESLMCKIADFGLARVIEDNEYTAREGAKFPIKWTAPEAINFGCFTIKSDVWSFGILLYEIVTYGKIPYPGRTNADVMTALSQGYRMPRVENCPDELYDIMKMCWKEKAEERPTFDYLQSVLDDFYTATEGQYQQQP
In short: as §1

BMX = target: T3, BMX (Homo sapiens, UniProt P51813)
T3 sequence (P51813 1-675): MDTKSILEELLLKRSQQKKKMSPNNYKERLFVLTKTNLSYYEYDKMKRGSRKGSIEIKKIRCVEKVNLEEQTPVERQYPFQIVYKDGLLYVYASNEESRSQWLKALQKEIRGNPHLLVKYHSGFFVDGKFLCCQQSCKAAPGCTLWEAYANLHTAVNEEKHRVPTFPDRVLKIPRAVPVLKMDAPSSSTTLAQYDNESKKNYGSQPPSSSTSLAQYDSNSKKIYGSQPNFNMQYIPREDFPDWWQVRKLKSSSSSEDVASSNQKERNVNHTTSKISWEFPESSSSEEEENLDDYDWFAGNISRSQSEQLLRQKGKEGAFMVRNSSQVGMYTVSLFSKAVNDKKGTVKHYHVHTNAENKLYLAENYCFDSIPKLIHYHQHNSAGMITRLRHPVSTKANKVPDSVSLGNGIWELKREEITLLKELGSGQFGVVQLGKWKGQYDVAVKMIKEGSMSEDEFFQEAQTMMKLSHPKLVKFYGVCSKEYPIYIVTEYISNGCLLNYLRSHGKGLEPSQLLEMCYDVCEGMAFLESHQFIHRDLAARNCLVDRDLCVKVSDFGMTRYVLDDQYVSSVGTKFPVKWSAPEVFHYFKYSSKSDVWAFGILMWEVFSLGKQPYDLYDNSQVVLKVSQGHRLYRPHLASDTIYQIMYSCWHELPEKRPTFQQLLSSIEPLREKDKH
In short: as §1

NEK2 = target: T4, NEK2 (Homo sapiens, UniProt P51955)
T4 sequence (P51955 1-445): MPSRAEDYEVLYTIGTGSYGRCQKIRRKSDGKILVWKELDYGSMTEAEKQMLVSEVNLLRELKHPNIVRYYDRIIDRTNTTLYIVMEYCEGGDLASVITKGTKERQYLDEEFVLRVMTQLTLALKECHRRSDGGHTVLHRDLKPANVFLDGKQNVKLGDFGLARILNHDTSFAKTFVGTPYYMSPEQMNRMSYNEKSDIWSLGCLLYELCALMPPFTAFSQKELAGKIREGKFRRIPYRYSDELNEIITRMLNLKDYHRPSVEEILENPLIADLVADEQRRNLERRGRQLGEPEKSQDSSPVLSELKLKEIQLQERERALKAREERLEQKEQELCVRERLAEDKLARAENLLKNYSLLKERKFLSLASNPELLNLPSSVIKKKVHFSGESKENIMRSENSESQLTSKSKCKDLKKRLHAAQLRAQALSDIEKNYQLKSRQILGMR
In short: as §1

| Compound | Activity (MAPKAPK2) | Activity (ABL1) | Activity (PRAK) | Activity (SRC) | Activity (C-TAK1) | also measured |
| --- | --- | --- | --- | --- | --- | --- |
| COc1ccc(-c2ccc3nccc(Nc4ccc(N5CCN(CC(=O)O)CC5)cc4)c3c2)cc1 [2-(4-(4-(6-(4-methoxyphenyl)quinolin-4-ylamino)phenyl)piperazin-1-yl)acetic acid] | MAPKAPK2 | – | – | – | – | Activity (PDGFR-α): PDGFR-α |
| O=C(O)CN1CCN(c2ccc(Nc3ccnc4ccc(-c5ccccc5)cc34)cc2)CC1 [2-(4-(4-(6-phenylquinolin-4-ylamino)phenyl)piperazin-1-yl)acetic acid] | MAPKAPK2 | – | – | – | – | Activity (FLT-3): FLT-3; Activity (PDGFR-α): PDGFR-α |
| CN1CCN(c2ccc(Nc3ccnc4ccc(-c5cccc(O)c5)cc34)cc2)CC1 [3-(4-(4-(4-methylpiperazin-1-yl)phenylamino)quinolin-6-yl)phenol] | MAPKAPK2 | ABL1 | PRAK | SRC | – | Activity (AKT3): AKT3; Activity (LCK): LCK |
| CN1CCN(c2ccc(Nc3ccnc4ccc(-c5cccc(Cl)c5Cl)cc34)cc2)CC1 [6-(2,3-dichlorophenyl)-N-(4-(4-methylpiperazin-1-yl)phenyl)quinolin-4-amine] | MAPKAPK2 | – | PRAK | – | C-TAK1 | Activity (LYNA): LYNA |
| CN1CCN(c2ccc(Nc3ccnc4ccc(-c5ccc(OCc6ccccc6)cc5)cc34)cc2)CC1 [6-(4-(benzyloxy)phenyl)-N-(4-(4-methylpiperazin-1-yl)phenyl)quinolin-4-amine] | – | – | – | SRC | C-TAK1 | Activity (BMX): BMX |
| CN1CCN(c2ccc(Nc3ccnc4ccc(-c5cc6ccccc6s5)cc34)cc2)CC1 [6-(benzo[b]thiophen-2-yl)-N-(4-(4-methylpiperazin-1-yl)phenyl)quinolin-4-amine] | MAPKAPK2 | – | – | SRC | C-TAK1 | – |
| CN1CCN(c2ccc(Nc3ccnc4ccc(-c5csc6ccccc56)cc34)cc2)CC1 [6-(benzo[b]thiophen-3-yl)-N-(4-(4-methylpiperazin-1-yl)phenyl)quinolin-4-amine] | MAPKAPK2 | ABL1 | PRAK | – | – | – |
| CN1CCN(c2ccc(Nc3ccnc4ccc(-c5ccccc5-c5ccccc5)cc34)cc2)CC1 [6-(biphenyl-2-yl)-N-(4-(4-methylpiperazin-1-yl)phenyl)quinolin-4-amine] | – | ABL | PRAK | – | – | Activity (LCK): LCK; Activity (LYNA): LYNA; Activity (NEK2): NEK2 |
